Data on one substance can be found in article PMC4707489, “A novel cell-penetrating peptide suppresses breast tumorigenesis by inhibiting β-catenin/LEF-1 signaling” (Scientific Reports, 2016).

In assay [1] the test system is MCF-7 cells. The experiment in a line: Transwell invasion assay. To be noted: MCF-7, 100 μmol/l, 48 hr post-transfection, vs control or TAT-NLS-BLBD-6m (Fig. 3c). The class given is cell-based, human. The procedure: (§1) Transwell chambers of […] pore size were used in the in vitro invasion assay. MCF-7 and MDA-MB-231 cells were seeded onto the upper chamber and incubated with TAT-NLS-BLBD-6 and TAT-NLS-BLBD-6m peptide and 10% fetal bovine serum medium were added to the bottom chamber well. After 24 hr, cells invading the lower chamber were fixed with 4% paraformaldehyde solution and stained with 0.1% crystal violet for 30 min at 37 °C. Three random field images were obtained by microscopy, and the number of invading cells were counted. For the migration assay, MCF-7 and MDA-MB-231 cells were seeded onto 6-well plates. After 24 hr, an artificial wound was created using a 10-μl pipette tip, and the wound was incubated with TAT-NLS-BLBD-6 or TAT-NLS-BLBD-6m for 24 hr at 37 °C. The images of wound healing were captured by microscopy, and the wound healing distances were calculated by Image J (U.S. National Institutes of Health, Bethesda, MD, USA). For the colony formation assay, MCF-7 and MDA-MB-231 cells were seeded into 10-cm dishes with the medium containing TAT-NLS-BLBD-6 or TAT-NLS-BLBD-6m. After 2 weeks, cells were fixed with 4% paraformaldehyde solution and stained with 0.1% crystal violet for 30 min at 37 °C.

Assay [2] deals with MDA-MB-231 cells. The experiment in a line: Transwell invasion assay. The settings on record: MDA-MB-231, 100 μmol/l, 48 hr post-transfection, vs control or TAT-NLS-BLBD-6m (Fig. 3c). It counts as cell-based, human. As to the method:
as §1

For assay [3], the system named is MCF-7 cells. Nature of the assay: Cell growth (CCK-8). The class given is cell-based, human.
Description: (§3) Cell growth was analyzed using 2-(2-methoxy-4-nitrophenyl)-3-(4-nitroph enyl)-5-(2,4-disulfophenyl)-2H-tetrazolium, monosodium salt, and the Cell Counting Kit-8 (CCK-8, Sigma). […] After culturing for another 48 hr, cell growth was analyzed by CCK-8 and the optical density was detected at 450 nm. The growth ratio was normalized to the cells without treatment.
Assay [4] deals with MDA-MB-231 cells. Nature of the assay: Cell growth (CCK-8). The class given is cell-based, human.
Description: as §3
The test system of assay [5] is MCF-7 cells. The experiment in a line: Colony-formation assay. To be noted: MCF-7, 100 μmol/l, 14 day post-transfection (Fig. 3e). The class given is cell-based, human. The procedure:
as §1

The test system of assay [6] is MDA-MB-231 cells. The experiment in a line: Colony-formation assay. The class given is cell-based, human. The settings on record: MDA-MB-231, 100 μmol/l, 14 day post-transfection (Fig. 3e). As to the method:
as §1

Another assay deals with β-catenin. The experiment in a line: Peptide-protein interaction by immunoprecipitation and PLA. It counts as binding, human. The procedure:
Immunoprecipitation and western blotting were performed as described previously. MCF-7 and MDA-MB-231 cells were harvested in 4 °C phosphate-buffered saline and cell pellets were lysed with RIPA lysis buffer (Millipore, Bedford, MA, USA) for 30 min on ice. Cell lysis supernatant liquid was obtained by centrifugation at 10,000 × g for 10 min, incubated with protein-G beads (Roche, Indianapolis, IN) and anti-β-catenin, and subjected to western blotting. For the western blotting assay, cellular extract proteins were separated by SDS-polyacrylamide gel (SDS-PAGE) and transferred to nitrocellulose membrane (Millipore) using a dry transfer apparatus (Bio-Rad). […]
MCF-7 and MDA-MB-231 cells were cultured in 35-mm plates with cover slides on the plate bottom and treated with NLS-BLBD-6, TAT-BLBD-6 and TAT-NLS-BLBD-6 peptide for 24 hr. […] For the immunofluorescence assay, the slides were incubated with primary antibodies, anti-β-catenin (Epitomics) and anti-TAT (Santa Cruz), for 6 hr, and Alexa-488 fluorescence secondary antibodies for 1 hr. […] For the TUNEL assay, apoptosis was analyzed by the Apo-BrdU-red DNA Fragmentation Assay kit, according to the manufacturer’s protocol (BioVision, Mountain View, CA, USA). For the PLA, the protein–protein interaction assay was analyzed by Duolink® using PLA® Technology, according to the manufacturer’s protocol (Olink Bioscience, Uppsala, Sweden). […]

For assay [7], the system named is MDA-MB-231-GFP cells in zebrafish embryos. The experiment in a line: Zebrafish xenotransplantation, fluorescence density. It counts as in vivo, Danio rerio. To be noted: MDA-MB-231-GFP co-injected with 100 μmol/l peptide into yolk sacs, between 24 hr and 48 hr, n = 20 per group, vs TAT-NLS-BLBD-6m. From the text:
(§2) All animal experiments were approved by the Kaohsiung Medical University Institutional Animal Care and Use Committee (IACUC Approval No: 101156) and we accordance with the approved guidelines. Female nude mice (4–5 weeks old) were obtained from the National Laboratory Animal Center (Taipei, Taiwan). Xenograft tumor models were established by subcutaneous injection of 1 × 10^7 MCF-7-YFP or MDA-MB-231-GFP cells into the right flanks of mice. Mice with palpable tumors were randomly divided into three groups with five animals in each group. The mice were treated with control peptide, 0, 1 and 10 mg/kg TAT-NLS-BLBD-6 by intratumoral injection once every 2 days for 35 days. The fluorescence density was analyzed by an In Vivo Imaging System (IVIS) (Berthold Technologies, Bad Wildbad, Germany), and the tumor volumes (V) of nude mice were calculated by: V = length × diameter^2 × 0.5. For zebrafish xenotransplantation, zebrafishes (Danio rerio) were maintained at 28 °C in an air incubator, and 1 × 10^4 MCF-7-GFP or MDA-MB-231-GFP cells combined with TAT-NLS-BLBD-6 or control peptide were injected into the zebrafish embryos according to the previously described protocol. […]

Assay [8] relates to MCF-7-GFP cells in zebrafish embryos. The assay is described as above. The class given is in vivo, Danio rerio. To be noted: MCF-7-GFP co-injected with 100 μmol/l peptide into yolk sacs, between 24 hr and 48 hr, n = 20 per group, vs TAT-NLS-BLBD-6m.
From the text: as §2

Consider H-TAT-NLS-ATDEMIPF-NH2 [TAT-NLS-BLBD-6], for which the invasion entry with MCF-7 cells [1] and in the assay on MDA-MB-231 cells [2] was “inhibited the mobility” in each case. Further, the cell growth entry in the assay on MCF-7 cells [3] (75 μmol/l peptide, MCF-7, CCK-8, means of three experiments (Fig. 1b)) was “inhibited the growth”; with MDA-MB-231 cells [4] (75 μmol/l peptide, MDA-MB-231, CCK-8, means of three experiments (Fig. 1b)) it was “inhibited the growth”. Further, the “time and dose dependence of cell growth” value in the assay with MCF-7 cells [3] (MCF-7, indicated concentrations, 24, 48 and 72 hr (Fig. 1c,d)) is “inhibited breast cancer cell growth in a time- and dose-dependent manner”; in the assay on MDA-MB-231 cells [4] (MDA-MB-231, indicated concentrations, 24, 48 and 72 hr (Fig. 1c,d)), “inhibited breast cancer cell growth in a time- and dose-dependent manner”. The colony formation result with MCF-7 cells [5] is “inhibited the mobility and proliferation”; with MDA-MB-231 cells [6] it was “inhibited the mobility and proliferation”. Further, the “binding to β-catenin” value with β-catenin (MCF-7 cell nuclei, immunoprecipitation and PLA, 2 hr post-transfection (Fig. 2b,c)) is “bound to the β-catenin elements”; with β-catenin (MDA-MB-231 cell nuclei, PLA, 100 μmol/l, 2 hr post-transfection (Fig. 2c)), “bound to the β-catenin elements”. Further, the “fluorescence density of transplanted tumor cells” value in assay [7] and in [8] was “gradually reduced” in each case.
